Data published in patent US6608003B2, “Herbicidal solutions comprising fatty acid ammonium salts and dicarboxylic acid diesters and methods of using the same” (Falcon Lab LLC, priority 2000, dated 2003).

Experiments:
Solubility in water = assay type: physicochemical
[1] = Solubility of the diester in 40% aqueous ammonium pelargonate solution; assay type: physicochemical; conditions: for amount of ester that dissolves in 100 g of 40% ammonium pelargonate to give a clear composition: 22 deg, successive additions of 99% ester; for dissolved diester content of the clear aqueous ammonium pelargonate composition: by weight, 40% (saturated) ammonium pelargonate solution
Method: A 40% solution of ammonium pelargonate was prepared by slowly adding 33 g. of 28% ammonium hydroxide to a stirred mixture of 89.3 g. of nonanoic acid (commercial pelargonic acid from Cognis Corp.) and 124.3 g. of distilled water.
To 361 gm. (2.29 mole) of technical pelargonic acid was added slowly with stirring a solution of 139 gm. of 28% ammonium hydroxide (2.29 mole NH3) in 500 ml. of deionized water.
A 40% solution of ammonium pelargonate was prepared by slowly adding 33 g. of 28% ammonium hydroxide to a stirred mixture of 89.3 g. of nonanoic acid (commercial pelargonic acid from Cognis Corp.) and 124.3 g. of distilled water. […]

solubility in water (in words) (Solubility in water)	amount of ester that dissolves in 100 g of 40% ammonium pelargonate to give a clear composition [1]	dissolved diester content of the clear aqueous ammonium pelargonate composition [1]	SMILES
insoluble in water	22.5 g	17.9%	COC(=O)CCCCCC(=O)OC [dimethyl pimelate, Dimethyl pimelate]
insoluble in water	19.3 g	16.2%	COC(=O)CCCCCCC(=O)OC [dimethyl suberate, Dimethyl suberate]
